From patent US10793568B2, “Hormone receptor modulators for treating metabolic conditions and disorders” (ARDELYX, INC., priority 2016, dated 2020)

How the values were obtained:
[1] = target: ligand binding domain of human FXR (Homo sapiens (Human), UniProt Q96RI1); assay: FXR ligand binding assay (LanthaScreen TR-FRET, SRC2-2 peptide recruitment); conditions: for pEC50: -log EC50, concentration required to produce 50% activation; for Emax: extent of activation relative to GW4064, read-out: % Efficacy
Chain of ligand binding domain of human FXR (Q96RI1 262-486): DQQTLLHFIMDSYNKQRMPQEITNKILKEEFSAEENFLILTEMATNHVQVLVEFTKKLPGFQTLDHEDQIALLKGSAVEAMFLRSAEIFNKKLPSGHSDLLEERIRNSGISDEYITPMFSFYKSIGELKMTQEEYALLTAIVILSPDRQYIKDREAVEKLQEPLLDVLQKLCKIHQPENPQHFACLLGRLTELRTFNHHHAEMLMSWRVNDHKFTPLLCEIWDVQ

[2] = target: human Farnesoid X receptor ligand-binding domain/Gal4 DNA binding domain chimera (Homo sapiens (Human), UniProt Q96RI1); assay: Cell-based assay of FXR activation (FXR-UAS-bla HEK 293T beta-lactamase reporter); conditions: cellular FXR beta-lactamase reporter assay; for Emax: HEK-293T, extent of activation relative to GW4064, read-out: % Efficacy; for EC50: FXR-UAS-bla HEK 293T cells, 16 h, pEC50 = -log EC50
Chain of human Farnesoid X receptor ligand-binding domain/Gal4 DNA binding domain chimera (Q96RI1 262-486, change not shown): as the sequence (Q96RI1 262-486) above
Chain of human Farnesoid X receptor ligand-binding domain/Gal4 DNA binding domain chimera (P04386 1-147 partner): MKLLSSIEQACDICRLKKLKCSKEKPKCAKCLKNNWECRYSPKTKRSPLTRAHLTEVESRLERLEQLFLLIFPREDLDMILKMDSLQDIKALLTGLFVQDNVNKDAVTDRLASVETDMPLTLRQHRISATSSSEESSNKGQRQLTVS
In short: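 Readout is cleavage of the CCF4 FRET substrate (409 nm excitation, blue 447 nm signal) by beta-lactamase, expressed under UAS control after a Gal4–human FXR LBD chimera is activated in HEK 293T cells. Compounds were added as 3-fold dilutions for 16 h at 37 °C in 2% charcoal-stripped FBS medium. Curves were fit to a 3-parameter logistic equation to give pEC50, with % activation relative to GW4064.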

Structure (SMILES) | pEC50 [1] | Emax [1] [%] | Emax [2] [%] | EC50 [2] [nM]
O=C(O[C@@H]1C[C@@H]2C[C@H]1CN2c1ccc(-c2nn[nH]n2)cc1F)c1c(-c2c(Cl)cccc2Cl)noc1C1CC1 [Compound I-51, (1S,4S,5R)-2-[2-fluoro-4-(2H-1,2,3,4-tetrazol-5-yl)phenyl]-2-azabicyclo[2.2.1]heptan-5-yl 5-cyclopropyl-3-(2,6-dichlorophenyl)-1,2-oxazole-4-carboxylate] | 6.7 | 269 | 104 | 20
Cc1cccc(Cl)c1-c1noc(C2CC2)c1CO[C@@H]1C[C@@H]2C[C@H]1CN2c1nc2c(C3CCOCC3)cc(C(=O)O)cc2s1 [Compound I-271, 2-((1S,4S,5R)-5-((3-(2-chloro-6-methylphenyl)-5-cyclopropylisoxazol-4-yl)methoxy)-2-azabicyclo[2.2.1]heptan-2-yl)-4-(tetrahydro-2H-pyran-4-yl)benzo[d]thiazole-6-carboxylic acid] | 8.6 | 132 | 108 | 0.398
CCc1cc(N2C(=O)[C@@H]3C[C@H]2C[C@H]3OCc2c(-c3c(Cl)cccc3Cl)noc2C2CC2)ccc1C(=O)O [Compound I-318, 4-[(1S,4R,5R)-5-{[5-cyclopropyl-3-(2,6-dichlorophenyl)-1,2-oxazol-4-yl]methoxy}-3-oxo-2-azabicyclo[2.2.1]heptan-2-yl]-2-ethylbenzoic Acid] | 7.2 | 127 | 116 | 6.31
O=C(NS(=O)(=O)C1CCOCC1)c1ccc(N2C(=O)[C@@H]3C[C@H]2C[C@H]3OCc2c(-c3c(Cl)cccc3Cl)noc2C2CC2)cc1F [Compound I-332, 4-((1S,4R,5R)-5-((5-cyclopropyl-3-(2,6-dichlorophenyl)isoxazol-4-yl)methoxy)-3-oxo-2-azabicyclo[2.2.1]heptan-2-yl)-2-fluoro-N-((tetrahydro-2H-pyran-4-yl)sulfonyl)benzamide] | 8.8 | 150 | 100 | 0.316
O=C1NCc2cc(N3C[C@@H]4C[C@H]3C[C@H]4OCc3c(-c4c(Cl)cccc4Cl)noc3C3CC3)ccc21 [Compound I-135, 5-[(1S,4S,5R)-5-{[5-cyclopropyl-3-(2,6-dichlorophenyl)-1,2-oxazol-4-yl]methoxy}-2-azabicyclo[2.2.1]heptan-2-yl]-2,3-dihydro-1H-isoindol-1-one] | 9.4 | 152 | 102 | 1
O=C(O)c1cc(C2CC2)c2nc(N3C[C@@H]4C[C@H]3C[C@H]4OC(=O)c3c(-c4c(Cl)cccc4Cl)noc3C3CC3)sc2c1 [Compound I-4, 4-cyclopropyl-2-[(1S,4S,5R)-5-[5-cyclopropyl-3-(2,6-dichlorophenyl)-1,2-oxazole-4-carbonyloxy]-2-azabicyclo[2.2.1]heptan-2-yl]-1,3-benzothiazole-6-carboxylic acid] | 7.3 | 166 | 112 | 3.16
O=C(O)CNC(=O)c1ccc(N2C[C@@H]3C[C@H]2C[C@H]3OCc2c(-c3c(Cl)cccc3Cl)noc2C2CC2)cc1F [Compound I-167, 2-({4-[(1S,4S,5R)-5-{[5-cyclopropyl-3-(2,6-dichlorophenyl)-1,2-oxazol-4-yl]methoxy}-2-azabicyclo[2.2.1]heptan-2-yl]-2-fluorophenyl}formamido)acetic Acid] | 8.7 | 152 | 106 | 7.94
O=C(NS(=O)(=O)CCO)c1ccc(N2C[C@@H]3C[C@H]2C[C@H]3OCc2c(-c3c(Cl)cccc3Cl)noc2C2CC2)cc1 [Compound I-210, 4-[(1S,4S,5R)-5-{[5-cyclopropyl-3-(2,6-dichlorophenyl)-1,2-oxazol-4-yl]methoxy}-2-azabicyclo[2.2.1]heptan-2-yl]-N-(2-hydroxyethanesulfonyl)benzamide] | 8.6 | 148 |  | < 31.6
CS(=O)(=O)NC(=O)c1cc(F)c2nc(N3C[C@@H]4C[C@H]3C[C@H]4OC(=O)c3c(-c4c(Cl)cccc4Cl)noc3C3CC3)sc2c1 [Compound I-31, (1S,4S,5R)-2-[4-fluoro-6-(methanesulfonylcarbamoyl)-1,3-benzothiazol-2-yl]-2-azabicyclo[2.2.1]heptan-5-yl 5-cyclopropyl-3-(2,6-dichlorophenyl)-1,2-oxazole-4-carboxylate] | 7.4 | 117 | 115 | 158
N#Cc1cc(CCC(=O)O)ccc1N1C[C@@H]2C[C@H]1C[C@H]2OCc1c(-c2c(Cl)cccc2Cl)noc1C1CC1 [Compound I-158, 3-{3-cyano-4-[(1S,4S,5R)-5-{[5-cyclopropyl-3-(2,6-dichlorophenyl)-1,2-oxazol-4-yl]methoxy}-2-azabicyclo[2.2.1]heptan-2-yl]phenyl}propanoic Acid] | 7.6 | 126 | 104 | 6.31
O=C(O)c1cc(F)c2nc(N3C[C@H]4C[C@@H]3C[C@@H]4OC(=O)c3c(-c4c(Cl)cccc4Cl)noc3C3CC3)sc2c1 [Compound I-38, 2-[(1R,4R,5S)-5-[5-cyclopropyl-3-(2,6-dichlorophenyl)-1,2-oxazole-4-carbonyloxy]-2-azabicyclo[2.2.1]heptan-2-yl]-4-fluoro-1,3-benzothiazole-6-carboxylic Acid] | 6.3 | 56 | 96 | 200
O=C(O)c1cc(O[C@@H]2CCOC2)c2nc(N3C[C@@H]4C[C@H]3C[C@H]4OCc3c(-c4c(F)cccc4Cl)noc3C3CC3)sc2c1 [Compound I-268, 2-((1S,4S,5R)-5-((3-(2-chloro-6-fluorophenyl)-5-cyclopropylisoxazol-4-yl)methoxy)-2-azabicyclo[2.2.1]heptan-2-yl)-4-(((R)-tetrahydrofuran-3-yl)oxy)benzo[d]thiazole-6-carboxylic acid] | 8.6 | 146 | 102 | 1.58
O=C(O)c1cc(O[C@H]2CCOC2)c2nc(N3C[C@@H]4C[C@H]3C[C@H]4OCc3c(-c4c(Cl)cccc4Cl)noc3C3CC3)sc2c1 [Compound I-260, 2-[(1S,4S,5R)-5-{[5-cyclopropyl-3-(2,6-dichlorophenyl)-1,2-oxazol-4-yl]methoxy}-2-azabicyclo[2.2.1]heptan-2-yl]-4-[(3S)-oxolan-3-yloxy]-1,3-benzothiazole-6-carboxylic Acid] | 8.8 | 148 | 103 | 0.398
O=C(CCc1ccc(N2C[C@@H]3C[C@H]2C[C@H]3OCc2c(-c3c(Cl)cccc3Cl)noc2C2CC2)c(F)c1)NS(=O)(=O)C1CCOCC1 [Compound I-238, 3-(4-((1S,4S,5R)-5-((5-cyclopropyl-3-(2,6-dichlorophenyl)isoxazol-4-yl)methoxy)-2-azabicyclo[2.2.1]heptan-2-yl)-3-fluorophenyl)-N-((tetrahydro-2H-pyran-4-yl)sulfonyl)propanamide] | 8.6 | 176 | 95 | 2.51
CC(C)(Cc1ccc(N2C[C@@H]3C[C@H]2C[C@H]3OCc2c(-c3c(Cl)cccc3Cl)noc2C2CC2)cc1F)C(=O)O [Compound I-156, 3-{4-[(1S,4S,5R)-5-{[5-cyclopropyl-3-(2,6-dichlorophenyl)-1,2-oxazol-4-yl]methoxy}-2-azabicyclo[2.2.1]heptan-2-yl]-2-fluorophenyl}-2,2-dimethylpropanoic Acid] | 7.6 | 128 | 105 | 39.8
O=C(O)c1ccc(N2C(=O)[C@@H]3C[C@H]2C[C@H]3OCc2c(-c3c(F)cccc3C3CC3)noc2C2CC2)cc1 [Compound I-311, 4-[(1S,4R,5R)-5-{[5-cyclopropyl-3-(2-cyclopropyl-6-fluorophenyl)-1,2-oxazol-4-yl]methoxy}-3-oxo-2-azabicyclo[2.2.1]heptan-2-yl]benzoic Acid] | 7.8 | 148 | 105 | 3.98
Cc1cccc(Cl)c1-c1noc(C2CC2)c1CO[C@@H]1C[C@@H]2C[C@H]1CN2c1nc2c(O[C@H]3CCOC3)cc(C(=O)O)cc2s1 [Compound I-274, 2-((1S,4S,5R)-5-((3-(2-chloro-6-methylphenyl)-5-cyclopropylisoxazol-4-yl)methoxy)-2-azabicyclo[2.2.1]heptan-2-yl)-4-(((S)-tetrahydrofuran-3-yl)oxy)benzo[d]thiazole-6-carboxylic acid] | 8.8 | 150 | 100 | 0.631
O=C(O)c1ccc(N2C(=O)[C@@H]3C[C@H]2C[C@H]3OCc2c(-c3c(Cl)cccc3Cl)noc2C2CC2)cc1F [Compound I-314, 4-[(1S,4R,5R)-5-{[5-cyclopropyl-3-(2,6-dichlorophenyl)-1,2-oxazol-4-yl]methoxy}-3-oxo-2-azabicyclo[2.2.1]heptan-2-yl]-2-fluorobenzoic Acid] | 8.4 | 145 | 103 | 2.51
O=C(O)c1cc([C@@H]2CCOC2)c2nc(N3C[C@@H]4C[C@H]3C[C@H]4OCc3c(-c4c(F)cccc4Cl)noc3C3CC3)sc2c1 [Compound I-266, 2-((1S,4S,5R)-5-((3-(2-chloro-6-fluorophenyl)-5-cyclopropylisoxazol-4-yl)methoxy)-2-azabicyclo[2.2.1]heptan-2-yl)-4-((S)-tetrahydrofuran-3-yl)benzo[d]thiazole-6-carboxylic Acid] | 8.6 | 139 | 105 | 0.251
